≈ marks a conversion by molar mass, not a printed value.
Legend:
Test in all cases: MIC, broth microdilution (NCCLS)
Format in all cases: cell-based
[1] = tested on: S. aureus GC6466 (tet(M)); details: Staphylococcus aureus, Mueller-Hinton II broth, 18-22 hours at 35° C.
Method: (§1) Methods for in Vitro Antibacterial Evaluation
(§2) The Minimum Inhibitory Concentration (MIC)
(§3) Antimicrobial susceptibility testing. The in vitro activities of the antibiotics are determined by the broth microdilution method as recommended by the National Committee for Clinical Laboratory Standards (NCCLS) (1). Mueller-Hinton II broth (MHBII)(BBL Cockeysville, Md.) is the medium employed in the testing procedures. Microtiter plates containing serial dilutions of each antimicrobial agent are inoculated with each organism to yield the appropriate density (10^5 CFU/ml) in a 100 μl final volume. The plates are incubated for 18-22 hours at 35° C. in ambient air.
(§4) 1. NCCLS. 2000. Methods for Dilution Antimicrobial Susceptibility Tests for Bacteria That Grow Aerobically; Approved Standards: M7-A5, vol. 20. National Committe for Clinical Laboratory Standards, Wayne, Pa.

[2] = tested on: H. influenzae<> GC6896 (ATCC Control); details: Haemophilus influenzae, Mueller-Hinton II broth, 18-22 hours at 35° C.
Method: as §1, §2, §3, §4

[3] = tested on: S. aureus GC4536 (Smith MP -In Vivo); details: Staphylococcus aureus, Mueller-Hinton II broth, 18-22 hours at 35° C.
Method: as §1, §2, §3, §4

[4] = tested on: E. coli GC2270 (tet(M)); details: Escherichia coli
Method: as §1, §2, §3, §4

[5] = tested on: S. pyogenes* GC4563 (Clinical); details: Streptococcus pyogenes, Mueller-Hinton II broth, 18-22 hours at 35° C.
Method: as §1, §2, §3, §4

[6] = tested on: E. faecalis GC4555 (ATCC Control); details: Enterococcus faecalis, Mueller-Hinton II broth, 18-22 hours at 35° C.
Method: as §1, §2, §3, §4

[7] = tested on: S. aureus GC1079 (tet(K)); details: Staphylococcus aureus, Mueller-Hinton II broth, 18-22 hours at 35° C.
Method: as §1, §2, §3, §4

[8] = tested on: S. aureus GC1131 (Clinical); details: Staphylococcus aureus, Mueller-Hinton II broth, 18-22 hours at 35° C.
Method: as §1, §2, §3, §4

[9] = tested on: E. coli GC4559 (parent GC4560); details: Escherichia coli, Mueller-Hinton II broth, 18-22 hours at 35° C.
Method: as §1, §2, §3, §4

[10] = tested on: M. catarrhalis* GC6907 (Clinical); details: Moraxella catarrhalis, Mueller-Hinton II broth, 18-22 hours at 35° C.
Method: as §1, §2, §3, §4

[11] = tested on: E. coli GC1073 (tet(B)); details: Escherichia coli
Method: as §1, §2, §3, §4

[12] = tested on: S. aureus GC2216 (ATCC Control); details: Staphylococcus aureus, Mueller-Hinton II broth, 18-22 hours at 35° C.
Method: as §1, §2, §3, §4

[13] = tested on: E. coli GC2203 (ATCC Control); details: Escherichia coli, Mueller-Hinton II broth, 18-22 hours at 35° C.
Method: as §1, §2, §3, §4

[14] = tested on: S. pneumoniae* GC4465 (Clinical); details: Streptococcus pneumoniae, Mueller-Hinton II broth, 18-22 hours at 35° C.
Method: as §1, §2, §3, §4

[15] = tested on: S. pneumoniae* GC1894 (Clinical); details: Streptococcus pneumoniae, Mueller-Hinton II broth, 18-22 hours at 35° C.
Method: as §1, §2, §3, §4

[16] = tested on: E. faecalis GC2242 (Van-resistant); details: Enterococcus faecalis, Mueller-Hinton II broth, 18-22 hours at 35° C.
Method: as §1, §2, §3, §4

[17] = tested on: C. albicans GC3066 ATCC (Control); details: Candida albicans, Mueller-Hinton II broth, 18-22 hours at 35° C.
Method: as §1, §2, §3, §4

[18] = tested on: E. coli GC4560 (IMP mutant); details: Escherichia coli
Method: as §1, §2, §3, §4

Row | SMILES | MIC [1] | MIC [2] | MIC [3] | MIC [4] | MIC [5] | MIC [6] | MIC [7] | MIC [8] | MIC [9] | MIC [10] | MIC [11] | MIC [12] | MIC [13] | MIC [14] | MIC [15] | MIC [16] | MIC [17] | MIC [18]
1 | COc1ccc(-c2nc3cc(N(C)C)c4c(c3o2)C(=O)C2=C(O)[C@]3(O)C(=O)C(C(N)=O)=C(O)[C@@H](N(C)C)[C@@H]3C[C@@H]2C4)cc1F [Example 13, (6aR,7aS,8S,11aS)-5,8-bis(dimethylamino)-2-(3-fluoro-4-methoxyphenyl)-9,11a,12-trihydroxy-11,13-dioxo-6,6a,7,7a,8,11,11a,13-octahydrotetraceno[2,1-d][1,3]oxazole-10-carboxamide] | 4 µg/mL (≈ 6.59 µM) | > 64 µg/mL | 8 µg/mL (≈ 13.2 µM) | > 64 µg/mL | 16 µg/mL (≈ 26.4 µM) | 8 µg/mL (≈ 13.2 µM) | 4 µg/mL (≈ 6.59 µM) | 4 µg/mL (≈ 6.59 µM) | > 64 µg/mL | 16 µg/mL (≈ 26.4 µM) | > 64 µg/mL | 4 µg/mL (≈ 6.59 µM) | > 64 µg/mL | 32 µg/mL (≈ 52.8 µM) | 16 µg/mL (≈ 26.4 µM) | 8 µg/mL (≈ 13.2 µM) | > 64 µg/mL | 4 µg/mL (≈ 6.59 µM)
2 | CN(C)c1cc2nc(-c3cc4ccccc4n3C)oc2c2c1C[C@H]1C[C@H]3[C@H](N(C)C)C(O)=C(C(N)=O)C(=O)[C@@]3(O)C(O)=C1C2=O [Example 19, (6aR,7aS,8S,11aS)-5,8-bis(dimethylamino)-9,11a,12-trihydroxy-2-(1-methyl-1H-indol-2-yl)-11,13-dioxo-6,6a,7,7a,8,11,11a,13-octahydrotetraceno[2,1-d][1,3]oxazole-10-carboxamide] | 4 µg/mL (≈ 6.54 µM) | > 64 µg/mL | 8 µg/mL (≈ 13.1 µM) | > 64 µg/mL | 8 µg/mL (≈ 13.1 µM) | 8 µg/mL (≈ 13.1 µM) | 4 µg/mL (≈ 6.54 µM) | 4 µg/mL (≈ 6.54 µM) | > 64 µg/mL | 16 µg/mL (≈ 26.2 µM) | > 64 µg/mL | 4 µg/mL (≈ 6.54 µM) | > 64 µg/mL | 4 µg/mL (≈ 6.54 µM) | 4 µg/mL (≈ 6.54 µM) | 4 µg/mL (≈ 6.54 µM) | > 64 µg/mL | 4 µg/mL (≈ 6.54 µM)
3 | CN(C)c1cc2nc(-c3cccnc3)oc2c2c1C[C@H]1C[C@H]3[C@H](N(C)C)C(O)=C(C(N)=O)C(=O)[C@@]3(O)C(O)=C1C2=O [Example 34, (6aR,7aS,8S,11aS)-5,8-bis(dimethylamino)-9,11a,12-trihydroxy-11,13-dioxo-2-pyridin-3-yl-6,6a,7,7a,8,11,11a,13-octahydrotetraceno[2,1-d][1,3]oxazole-10-carboxamide] | 64 µg/mL (≈ 114 µM) | > 64 µg/mL | 64 µg/mL (≈ 114 µM) | > 64 µg/mL | 32 µg/mL (≈ 57.2 µM) | 32 µg/mL (≈ 57.2 µM) | 32 µg/mL (≈ 57.2 µM) | 32 µg/mL (≈ 57.2 µM) | > 64 µg/mL | 16 µg/mL (≈ 28.6 µM) | > 64 µg/mL | 32 µg/mL (≈ 57.2 µM) | > 64 µg/mL | 32 µg/mL (≈ 57.2 µM) | 64 µg/mL (≈ 114 µM) | 32 µg/mL (≈ 57.2 µM) | > 64 µg/mL | 32 µg/mL (≈ 57.2 µM)
4 | COc1ccccc1/C=C/c1nc2cc(N(C)C)c3c(c2o1)C(=O)C1=C(O)[C@]2(O)C(=O)C(C(N)=O)=C(O)[C@@H](N(C)C)[C@@H]2C[C@@H]1C3 [Example 28, (6aR,7aS,8S,11aS)-5,8-bis(dimethylamino)-9,11a,12-trihydroxy-2-[(E)-2-(2-methoxyphenyl)ethenyl]-11,13-dioxo-6,6a,7,7a,8,11,11a,13-octahydrotetraceno[2,1-d][1,3]oxazole-10-carboxamide] | 8 µg/mL (≈ 13 µM) | > 64 µg/mL | 16 µg/mL (≈ 26 µM) | > 64 µg/mL | 16 µg/mL (≈ 26 µM) | 16 µg/mL (≈ 26 µM) | 16 µg/mL (≈ 26 µM) | 8 µg/mL (≈ 13 µM) | > 64 µg/mL | 64 µg/mL (≈ 104 µM) | > 64 µg/mL | 8 µg/mL (≈ 13 µM) | > 64 µg/mL | 32 µg/mL (≈ 52.1 µM) | 64 µg/mL (≈ 104 µM) | 8 µg/mL (≈ 13 µM) | > 64 µg/mL | 16 µg/mL (≈ 26 µM)
5 | COc1ccc(/C=C/c2nc3cc(N(C)C)c4c(c3o2)C(=O)C2=C(O)[C@]3(O)C(=O)C(C(N)=O)=C(O)[C@@H](N(C)C)[C@@H]3C[C@@H]2C4)cc1 [Example 26, (6aR,7aS,8S,11aS)-5,8-bis(dimethylamino)-9,11a,12-trihydroxy-2-[(E)-2-(4-methoxyphenyl)ethenyl]-11,13-dioxo-6,6a,7,7a,8,11,11a,13-octahydrotetraceno[2,1-d][1,3]oxazole-10-carboxamide] | 16 µg/mL (≈ 26 µM) | > 64 µg/mL | 32 µg/mL (≈ 52.1 µM) | > 64 µg/mL | 64 µg/mL (≈ 104 µM) | 32 µg/mL (≈ 52.1 µM) | 32 µg/mL (≈ 52.1 µM) | 16 µg/mL (≈ 26 µM) | > 64 µg/mL | > 64 µg/mL | > 64 µg/mL | 16 µg/mL (≈ 26 µM) | > 64 µg/mL | > 64 µg/mL | > 64 µg/mL | 16 µg/mL (≈ 26 µM) | > 64 µg/mL | 32 µg/mL (≈ 52.1 µM)
6 | CN(C)c1cc2nc(-c3cc4ccccc4o3)oc2c2c1C[C@H]1C[C@H]3[C@H](N(C)C)C(O)=C(C(N)=O)C(=O)[C@@]3(O)C(O)=C1C2=O [Example 18, (6aR,7aS,8S,11aS)-2-(1-benzofuran-2-yl)-5,8-bis(dimethylamino)-9,11a,12-trihydroxy-11,13-dioxo-6,6a,7,7a,8,11,11a,13-octahydrotetraceno[2,1-d][1,3]oxazole-10-carboxamide] | 4 µg/mL (≈ 6.68 µM) | > 64 µg/mL | 4 µg/mL (≈ 6.68 µM) | > 64 µg/mL | 16 µg/mL (≈ 26.7 µM) | 4 µg/mL (≈ 6.68 µM) | 4 µg/mL (≈ 6.68 µM) | 4 µg/mL (≈ 6.68 µM) | > 64 µg/mL | 8 µg/mL (≈ 13.4 µM) | > 64 µg/mL | 4 µg/mL (≈ 6.68 µM) | > 64 µg/mL | 16 µg/mL (≈ 26.7 µM) | 16 µg/mL (≈ 26.7 µM) | 4 µg/mL (≈ 6.68 µM) | > 64 µg/mL | 4 µg/mL (≈ 6.68 µM)
7 | CN(C)c1cc2nc(-c3nccs3)oc2c2c1C[C@H]1C[C@H]3[C@H](N(C)C)C(O)=C(C(N)=O)C(=O)[C@@]3(O)C(O)=C1C2=O [Example 24, (6aR,7aS,8S,11aS)-5,8-bis(dimethylamino)-9,11a,12-trihydroxy-11,13-dioxo-2-(1,3-thiazol-2-yl)-6,6a,7,7a,8,11,11a,13-octahydrotetraceno[2,1-d][1,3]oxazole-10-carboxamide] | 32 µg/mL (≈ 56.6 µM) | > 64 µg/mL | 32 µg/mL (≈ 56.6 µM) | > 64 µg/mL | 32 µg/mL (≈ 56.6 µM) | 32 µg/mL (≈ 56.6 µM) | 32 µg/mL (≈ 56.6 µM) | 32 µg/mL (≈ 56.6 µM) | > 64 µg/mL | > 64 µg/mL | > 64 µg/mL | 64 µg/mL (≈ 113 µM) | > 64 µg/mL | 64 µg/mL (≈ 113 µM) | 64 µg/mL (≈ 113 µM) | 32 µg/mL (≈ 56.6 µM) | > 64 µg/mL | 32 µg/mL (≈ 56.6 µM)
8 | CC(C)=Cc1nc2ccc3cc4c(c(O)c3c2o1)C(=O)[C@]1(O)C(=O)C(C(N)=O)=C(O)[C@@H](N(C)C)[C@@H]1C4 [Example 2, (7aS,8S,11aS)-8-(dimethylamino)-9,11a,13-trihydroxy-2-(2-methyl-1-propenyl)-11,12-dioxo-7,7a,8,11,11a,12-hexahydronaphthaceno[2,1-d][1,3]oxazole-10-carboxamide] | 8 µg/mL (≈ 16.3 µM) | – | 8 µg/mL (≈ 16.3 µM) | > 64 µg/mL | 8 µg/mL (≈ 16.3 µM) | 8 µg/mL (≈ 16.3 µM) | 8 µg/mL (≈ 16.3 µM) | 8 µg/mL (≈ 16.3 µM) | > 64 µg/mL | – | > 64 µg/mL | 8 µg/mL (≈ 16.3 µM) | > 64 µg/mL | 8 µg/mL (≈ 16.3 µM) | – | 8 µg/mL (≈ 16.3 µM) | > 64 µg/mL | 8 µg/mL (≈ 16.3 µM)
9 | CN(C)c1ccc(-c2nc3ccc4cc5c(c(O)c4c3o2)C(=O)[C@]2(O)C(=O)C(C(N)=O)=C(O)[C@@H](N(C)C)[C@@H]2C5)cc1 [Example 3, (7aS,8S,11aS)-8-(dimethylamino)-2-[4-(dimethylamino)phenyl]-9,11a,13-trihydroxy-11,12-dioxo-7,7a,8,11,11a,12-hexahydronaphthaceno[2,1-d][1,3]oxazole-10-carboxamide] | 2 µg/mL (≈ 3.59 µM) | – | 2 µg/mL (≈ 3.59 µM) | > 64 µg/mL | 8 µg/mL (≈ 14.4 µM) | 2 µg/mL (≈ 3.59 µM) | 1 µg/mL (≈ 1.8 µM) | 2 µg/mL (≈ 3.59 µM) | > 64 µg/mL | – | > 64 µg/mL | 2 µg/mL (≈ 3.59 µM) | > 64 µg/mL | 2 µg/mL (≈ 3.59 µM) | – | 2 µg/mL (≈ 3.59 µM) | > 64 µg/mL | 16 µg/mL (≈ 28.7 µM)
